This assay can be described thus: Compound was tested for the inhibitory activity against alpha-mannosidase.
As for `CS[C@H]1C[C@H](O)[C@H](O)[C@@H]1N`, the IC50 worked out at 28 µM. As for `CS[C@H]1[C@H](O)[C@H](O)C[C@@H]1N`, the figure is more than 100 µM; as for `OCC1NC(O)C(O)C(O)C1O` (stereo not given), 42 µM; as for `CS[C@@H]1[C@@H](N)[C@@H](O)C[C@H]1O`, 31 µM. `CS[C@@H]1[C@@H](N)[C@@H](O)[C@@H](O)[C@H]1O` [MANNOSTATIN A] displayed an IC50 of 0.24 µM.

The record behind these values is ChEMBL document CHEMBL1131727, “Synthesis and biological evaluation of alpha-mannosidase inhibitory activity of three deoxy derivatives of mannostatin A” (Bioorg Med Chem Lett, 1999).
